Measurements taken from patent US20240293392A1, “INHIBITOR COMPOUNDS” (NeoPhore Limited, priority 2021, published 2024).
Counter-ions that a name gives are not always drawn.

How the values were obtained:
[1] = target: T1, recombinant N-terminal PMS2 (residues 1-365) (Homo sapiens, UniProt P54278); experiment: Fluorescence Polarisation Assay for PMS2; type: binding; conditions: fluorescence polarisation probe displacement; 10 nM N-terminal PMS2, 5 nM probe compound; read-out: PMS2 IC50
T1 construct: recombinant N-terminal PMS2 (residues 1-365)
T1 sequence (P54278 1-365): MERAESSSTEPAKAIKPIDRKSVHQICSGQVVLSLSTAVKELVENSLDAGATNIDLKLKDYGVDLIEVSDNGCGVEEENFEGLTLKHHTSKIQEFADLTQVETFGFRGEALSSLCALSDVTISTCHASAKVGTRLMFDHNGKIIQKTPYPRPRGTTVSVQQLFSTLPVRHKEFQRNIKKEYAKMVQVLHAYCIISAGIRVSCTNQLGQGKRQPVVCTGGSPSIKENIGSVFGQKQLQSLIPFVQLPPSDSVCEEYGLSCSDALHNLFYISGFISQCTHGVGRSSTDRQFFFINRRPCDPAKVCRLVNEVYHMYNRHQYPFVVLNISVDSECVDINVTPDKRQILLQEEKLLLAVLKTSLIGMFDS
Procedure, shortened: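 Competition fluorescence polarisation with 10 nM N-terminal PMS2 and 5 nM fluorescent probe (final), read after 1 h at room temperature following 30 min compound pre-incubation. Data normalised to no-inhibitor and no-enzyme controls; single-point screening or serial dilutions for potency.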

[2] = target: T2, recombinant N-terminal MLH1 (residues 15-340) (Homo sapiens, UniProt P40692); experiment: Fluorescence Polarisation Assay for MLH1; type: binding; conditions: fluorescence polarisation probe displacement; 100 nM N-terminal MLH1, 5 nM probe compound
T2 construct: recombinant N-terminal MLH1 (residues 15-340)
T2 sequence (P40692 15-340): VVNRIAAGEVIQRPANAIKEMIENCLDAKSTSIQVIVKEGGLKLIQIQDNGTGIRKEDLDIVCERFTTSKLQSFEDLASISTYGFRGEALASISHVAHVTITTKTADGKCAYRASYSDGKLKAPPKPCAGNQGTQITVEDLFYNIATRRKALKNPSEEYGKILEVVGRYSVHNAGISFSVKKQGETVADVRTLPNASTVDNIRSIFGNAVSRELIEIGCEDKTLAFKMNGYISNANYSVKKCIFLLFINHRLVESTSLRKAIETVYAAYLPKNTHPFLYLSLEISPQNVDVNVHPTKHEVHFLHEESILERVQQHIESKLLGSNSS
Procedure, shortened: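 FP displacement assay: 100 nM MLH1 (residues 15-340) preincubated 30 min at room temperature with compound in 25 mM HEPES pH 7.5, 250 mM NaCl, 10 mM MgCl2, 0.01% Triton X-100, 5 mM DTT, then 5 nM rhodamine-labelled probe added and read immediately. Data normalised to no-inhibitor and no-enzyme controls.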

| Compound | IC50 [1] [µM] | IC50 [2] [µM] |
| --- | --- | --- |
| NCCCCCN1CCN(Cc2ccc3c(c2)CN(C(=O)c2c(O)cc(O)cc2OCc2ccccc2)C3)CC1 [Example 104, (5-((4-(5-Aminopentyl)piperazin-1-yl)methyl)isoindolin-2-yl)(2-(benzyloxy)-4,6 dihydroxyphenyl)methanone hydrochloride] | < 1 | < 1 |
| O=C(c1c(O)cc(O)cc1OCc1ccncc1)N1Cc2cccc(NC3CCOC3)c2C1 (stereo not drawn) [Example 97, (2,4-Dihydroxy-6-(pyridin-4-ylmethoxy)phenyl)(4-((tetrahydrofuran-3-yl)amino)isoindolin-2-yl)methanone] | 1 to 10 | < 1 |
| O=C(c1c(O)cc(O)cc1OCc1ccccc1)N1CCc2ccc(CNC3CCOC3)cc2C1 (stereo not drawn) [Example 85, (2-(Benzyloxy)-4,6-dihydroxyphenyl)(7-(((tetrahydrofuran-3-yl)amino)methyl)-3,4-dihydroisoquinolin-2(1H)-yl)methanone] | 1 to 10 | 1 to 10 |
| CN(C)Cc1ccc2c(c1)CCN(C(=O)c1c(O)cc(O)cc1OCc1ccccc1)C2 [Example 46, (2-Benzyloxy-4,6-dihydroxy-phenyl)-[6-[(dimethylamino)methyl]-3,4-dihydro-1H-isoquinolin-2-yl]methanone] | 1 to 10 | 1 to 10 |
| O=C(c1c(O)cc(O)cc1OCc1ccccn1)N1CCc2cccc(N[C@H]3CCOC3)c2C1 [Example 55, (S)-(2,4-Dihydroxy-6-(pyridin-2-ylmethoxy)phenyl)(8-((tetrahydrofuran-3-yl)amino)-3,4-dihydroisoquinolin-2(1H)-yl)methanone] | 1 to 10 | < 1 |

Further lines, results first:

| IC50 [1] [µM] | IC50 [2] [µM] | Compound |
| --- | --- | --- |
| 1 to 10 | < 1 | CN(C)CCOc1cc2c(c(N[C@@H]3CCOC3)c1)CN(C(=O)c1c(O)cc(O)cc1OCc1ccccc1)CC2 [Example 131, (R)-(2-(Benzyloxy)-4,6-dihydroxyphenyl)(6-(2-(dimethylamino)ethoxy)-8-((tetrahydrofuran-3-yl)amino)-3,4-dihydroisoquinolin-2(1H)-yl)methanone] |
| 1 to 10 | 1 to 10 | O=C(c1c(O)cc(O)cc1OCc1ccccc1)N1CCc2ccc(F)c(NC3CCOC3)c2C1 (stereo not drawn) [Example 116, (2-(Benzyloxy)-4,6-dihydroxyphenyl)(7-fluoro-8-((tetrahydrofuran-3-yl)amino)-3,4-dihydroisoquinolin-2(1H)-yl)methanone] |
| 1 to 10 | < 1 | CN1CCN(Cc2cc3c(c(N[C@@H]4CCOC4)c2)CN(C(=O)c2c(O)cc(O)cc2OCc2ccccc2)CC3)CC1 [Example 122, (R)-(2-(Benzyloxy)-4,6-dihydroxyphenyl)(6-((4-methylpiperazin-1-yl)methyl)-8-((tetrahydrofuran-3-yl)amino)-3,4-dihydroisoquinolin-2(1H)-yl)methanone] |
| 1 to 10 | < 1 | COc1cc2c(c(NC3CCOC3)c1)CN(C(=O)c1c(O)cc(O)cc1OCc1ccccc1)CC2 (stereo not drawn) [Example 54, (2-(Benzyloxy)-4,6-dihydroxyphenyl)(6-methoxy-8-((tetrahydrofuran-3-yl)amino)-3,4-dihydroisoquinolin-2(1H)-yl)methanone] |
